According to patent publication US6114310A, “Efflux pump inhibitors” (priority 1998, dated 2000):

Test system: Pseudomonas aeruginosa PAM1001
Assay: microbe, parasite or virus in culture
Assay type: cell-based
In short: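 Checkerboard broth microdilution (NCCLS) with the efflux pump inhibitor and levofloxacin, each diluted along one axis of the plate, in Mueller Hinton Broth. Inoculum 5×10^5 CFU/ml from early-log culture; incubation 20 h at 35° C. Growth read at 650 nm and visually.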

[1] = Table 1, EPI Conc. μg/ml (number not given; column between 10 and 40 μg/ml)
[2] = Table 2, EPI Conc. μg/ml (number not given; column between 10 and 40 μg/ml)
[3] = Table 3, EPI Conc. μg/ml (number not given; column between 10 and 40 μg/ml)
[4] = Table 4, EPI Conc. μg/ml (number not given; column between 10 and 40 μg/ml)

Substance	Levofloxacin MIC Against P. aeruginosa PAM1001 in Presence of Efflux Pump Inhibitor (EPI), Minimum Inhibitory Concentration (Table 1, EPI Conc. 0 μg/ml) [µg/mL]	Levofloxacin MIC Against P. aeruginosa PAM1001 in Presence of Efflux Pump Inhibitor (EPI), Minimum Inhibitory Concentration (Table 1, EPI Conc. 0.625 μg/ml) [µg/mL]	Levofloxacin MIC Against P. aeruginosa PAM1001 in Presence of Efflux Pump Inhibitor (EPI), Minimum Inhibitory Concentration (Table 1, EPI Conc. 5 μg/ml) [µg/mL]	Levofloxacin MIC Against P. aeruginosa PAM1001 in Presence of Efflux Pump Inhibitor (EPI), Minimum Inhibitory Concentration (Table 1, EPI Conc. 10 μg/ml) [µg/mL]	Levofloxacin MIC Against P. aeruginosa PAM1001 in Presence of Efflux Pump Inhibitor (EPI), Minimum Inhibitory Concentration (Table 1, EPI Conc. 40 μg/ml) [µg/mL]	Levofloxacin MIC Against P. aeruginosa PAM1001 in Presence of Efflux Pump Inhibitor (EPI), Minimum Inhibitory Concentration [1] [µg/mL]	Levofloxacin MIC Against P. aeruginosa PAM1001 in Presence of Efflux Pump Inhibitor (EPI), Minimum Inhibitory Concentration (Table 2, EPI Conc. 0 μg/ml) [µg/mL]	Levofloxacin MIC Against P. aeruginosa PAM1001 in Presence of Efflux Pump Inhibitor (EPI), Minimum Inhibitory Concentration (Table 2, EPI Conc. 0.625 μg/ml) [µg/mL]	Levofloxacin MIC Against P. aeruginosa PAM1001 in Presence of Efflux Pump Inhibitor (EPI), Minimum Inhibitory Concentration (Table 2, EPI Conc. 5 μg/ml) [µg/mL]	Levofloxacin MIC Against P. aeruginosa PAM1001 in Presence of Efflux Pump Inhibitor (EPI), Minimum Inhibitory Concentration (Table 2, EPI Conc. 10 μg/ml) [µg/mL]	Levofloxacin MIC Against P. aeruginosa PAM1001 in Presence of Efflux Pump Inhibitor (EPI), Minimum Inhibitory Concentration (Table 2, EPI Conc. 40 μg/ml) [µg/mL]	Levofloxacin MIC Against P. aeruginosa PAM1001 in Presence of Efflux Pump Inhibitor (EPI), Minimum Inhibitory Concentration [2] [µg/mL]	Levofloxacin MIC Against P. aeruginosa PAM1001 in Presence of Efflux Pump Inhibitor (EPI), Minimum Inhibitory Concentration (Table 3, EPI Conc. 0 μg/ml) [µg/mL]	Levofloxacin MIC Against P. aeruginosa PAM1001 in Presence of Efflux Pump Inhibitor (EPI), Minimum Inhibitory Concentration (Table 3, EPI Conc. 0.625 μg/ml) [µg/mL]	Levofloxacin MIC Against P. aeruginosa PAM1001 in Presence of Efflux Pump Inhibitor (EPI), Minimum Inhibitory Concentration (Table 3, EPI Conc. 5 μg/ml) [µg/mL]	Levofloxacin MIC Against P. aeruginosa PAM1001 in Presence of Efflux Pump Inhibitor (EPI), Minimum Inhibitory Concentration (Table 3, EPI Conc. 10 μg/ml) [µg/mL]	Levofloxacin MIC Against P. aeruginosa PAM1001 in Presence of Efflux Pump Inhibitor (EPI), Minimum Inhibitory Concentration [3] [µg/mL]	Levofloxacin MIC Against P. aeruginosa PAM1001 in Presence of Efflux Pump Inhibitor (EPI), Minimum Inhibitory Concentration (Table 4, EPI Conc. 0 μg/ml) [µg/mL]	Levofloxacin MIC Against P. aeruginosa PAM1001 in Presence of Efflux Pump Inhibitor (EPI), Minimum Inhibitory Concentration (Table 4, EPI Conc. 0.625 μg/ml) [µg/mL]	Levofloxacin MIC Against P. aeruginosa PAM1001 in Presence of Efflux Pump Inhibitor (EPI), Minimum Inhibitory Concentration (Table 4, EPI Conc. 5 μg/ml) [µg/mL]	further results
D-Lysyl-β-N-(Ethylthioethyl)alanine 2-Naphthylamide Trifluoroacetate [Example 26]	4	4	1	0.125	0.06	0.125	4	4	2	0.125	0.06	0.125	4	4	0.06	0.015	0.03	4	4	1	Levofloxacin MIC Against P. aeruginosa PAM1001 in Presence of Efflux Pump Inhibitor (EPI), Minimum Inhibitory Concentration (Table 2, EPI Conc. […]): 4 µg/mL; Levofloxacin MIC Against P. aeruginosa PAM1001 in Presence of Efflux Pump Inhibitor (EPI), Minimum Inhibitory Concentration (Table 4, EPI Conc. 10 μg/ml): 0.25 µg/mL; Levofloxacin MIC Against P. aeruginosa PAM1001 in Presence of Efflux Pump Inhibitor (EPI), Minimum Inhibitory Concentration (Table 4, EPI Conc. 40 μg/ml): 0.03 µg/mL; Levofloxacin MIC Against P. aeruginosa PAM1001 in Presence of Efflux Pump Inhibitor (EPI), Minimum Inhibitory Concentration (Table 4, EPI Conc. […]): 4 µg/mL; Levofloxacin MIC Against P. aeruginosa PAM1001 in Presence of Efflux Pump Inhibitor (EPI), Minimum Inhibitory Concentration [4]: 0.125 µg/mL
D-Ornithyl-D-phenylalanine quinoline-3-amide [Compound 7 (Table 2)]	4	4	4	2	0.50	1	4	4	0.25	0.06	0.06	0.06	4	4	0.015	0.015	0.03	4	4	0.06	Levofloxacin MIC Against P. aeruginosa PAM1001 in Presence of Efflux Pump Inhibitor (EPI), Minimum Inhibitory Concentration (Table 1, EPI Conc. […]): 4 µg/mL; Levofloxacin MIC Against P. aeruginosa PAM1001 in Presence of Efflux Pump Inhibitor (EPI), Minimum Inhibitory Concentration (Table 4, EPI Conc. 10 μg/ml): 0.03 µg/mL; Levofloxacin MIC Against P. aeruginosa PAM1001 in Presence of Efflux Pump Inhibitor (EPI), Minimum Inhibitory Concentration (Table 4, EPI Conc. 40 μg/ml): 0.03 µg/mL; Levofloxacin MIC Against P. aeruginosa PAM1001 in Presence of Efflux Pump Inhibitor (EPI), Minimum Inhibitory Concentration [4]: 0.03 µg/mL
D-Ornithyl-D-β-(3-quinolinyl)alanine 2,3-trimethylenepyridyl-5-amide [Compound 41 (Table 2)]	4	4	0.125	0.06	0.015	0.015	4	4	2	1	0.50	0.25	4	4	4	2	1	4	4	2	Levofloxacin MIC Against P. aeruginosa PAM1001 in Presence of Efflux Pump Inhibitor (EPI), Minimum Inhibitory Concentration (Table 1, EPI Conc. […]): 2 µg/mL; Levofloxacin MIC Against P. aeruginosa PAM1001 in Presence of Efflux Pump Inhibitor (EPI), Minimum Inhibitory Concentration (Table 2, EPI Conc. […]): 4 µg/mL; Levofloxacin MIC Against P. aeruginosa PAM1001 in Presence of Efflux Pump Inhibitor (EPI), Minimum Inhibitory Concentration (Table 3, EPI Conc. 40 μg/ml): 0.50 µg/mL; Levofloxacin MIC Against P. aeruginosa PAM1001 in Presence of Efflux Pump Inhibitor (EPI), Minimum Inhibitory Concentration (Table 3, EPI Conc. […]): 4 µg/mL; Levofloxacin MIC Against P. aeruginosa PAM1001 in Presence of Efflux Pump Inhibitor (EPI), Minimum Inhibitory Concentration (Table 4, EPI Conc. 10 μg/ml): 0.50 µg/mL; Levofloxacin MIC Against P. aeruginosa PAM1001 in Presence of Efflux Pump Inhibitor (EPI), Minimum Inhibitory Concentration (Table 4, EPI Conc. […]): 4 µg/mL; Levofloxacin MIC Against P. aeruginosa PAM1001 in Presence of Efflux Pump Inhibitor (EPI), Minimum Inhibitory Concentration [4]: 0.50 µg/mL
